From patent publication EP0942066A2, “Cell line of blood-brain barrier” (KYOWA HAKKO KOGYO CO., LTD., priority 1998, dated 1999) come the findings set out here.

In one series the target is T1, GLUT1 (Mus musculus, UniProt P17809).
T1 construct: A band indicating the expression of GLUT-1 was confirmed in any of TM-BBB1, TM-BBB2, TM-BBB3, TM-BBB4 and TM-BBB5; endogenous in cells; host or cells: TM-BBB1 to TM-BBB5, conditionally immortalised mouse brain capillary endothelial cell lines (SV40tsA58 large T transgenic mice)
T1 sequence (P17809 1-492): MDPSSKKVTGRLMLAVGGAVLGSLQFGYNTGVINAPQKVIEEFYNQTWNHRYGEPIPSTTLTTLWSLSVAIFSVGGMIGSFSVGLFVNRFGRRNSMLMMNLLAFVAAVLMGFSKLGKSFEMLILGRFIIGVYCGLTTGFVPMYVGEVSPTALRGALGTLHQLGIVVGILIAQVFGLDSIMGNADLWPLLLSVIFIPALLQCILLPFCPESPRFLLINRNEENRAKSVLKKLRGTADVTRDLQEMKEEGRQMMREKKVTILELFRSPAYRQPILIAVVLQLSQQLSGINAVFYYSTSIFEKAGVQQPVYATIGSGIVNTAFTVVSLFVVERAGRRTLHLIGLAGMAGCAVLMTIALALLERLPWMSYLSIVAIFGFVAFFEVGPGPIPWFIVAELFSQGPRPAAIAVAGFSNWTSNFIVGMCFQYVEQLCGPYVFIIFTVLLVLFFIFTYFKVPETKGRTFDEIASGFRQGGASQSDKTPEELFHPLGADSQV
Briefly: Incorporation of 3-O-methyl-D-glucose (3-OMG) into brain capillary endothelial cell lines TM-BBB (glucose transfer ability). Format: cell-based. The following applies: incorporation of [^3H]3-OMG into TM-BBB cell lines, uptake buffer 37°C, 20 seconds. On the procedure:
(§1) Each of TM-BBB's was plated onto a 24-well cell culture plate at a density of 3×10^5 cells/well/mℓ medium and cultured in a CO2 incubator at 33°C for 24 hours to make the cells confluent. The incorporation of 3-OMG was measured in the following manner. […] Ten seconds later, the uptake buffer was removed, and the cells were washed with the uptake buffer at 4°C. Subsequently, the uptake buffer was removed after 20 seconds, 30 seconds, 1 minute, or 10 minutes, and the cells were treated in the same manner. […] Twenty seconds later, the uptake buffer was removed, and the cells were washed with the uptake buffer at 4°C. Then, the cells were lyzed overnight with 1 mℓ PBS containing 1% Triton X-100 and then measured for radioactivity in a liquid scintillation counter. […] Pharmacobio-Dyn, 4: 879-885 (1981)] using a plot formula (V = Vmax x [S]/(Km + [S]); […]

For series [1], the system named is L-glutamic acid transporter. Put plainly: Incorporation of [^3H]L-glutamic acid into astrocyte cell lines TR-AST (glutamic acid transport ability). The format is cell-based, rat. The following applies: for incorporation of [^3H]L-Glu, expressed in % relative to the control: 1 mM of the inhibitor, control = 100±5; for inhibition of incorporation of [^3H]L-Glu (in words): other substrates of the transporter. On the procedure: The glutamic acid transport ability of the cell lines obtained in Example 4, that is, TR-AST32, TR-AST811, TR-AST912, TR-AST932, TR-AST943 was examined by incorporation of [^3H]L-glutamic acid ([^3H]L-Glu). Each TR-AST's was plated onto a 24-well cell culture plate at a density of 2×10^5 cells/well and cultured in a CO2 incubator at 33°C to make the cells confluent. The incorporation of [^3H]L-Glu was measured in the following manner. First, the medium was suctioned, and the cells were washed with an uptake buffer at 37°C, and 0.2 mℓ uptake buffer containing 46.3 kBq/well [^3H]L-Glu and 9.25 kBq/mℓ [^14C]inulin at 37°C was added, and the tracer solution was removed after 2, 5, 10 or 30 minutes, and the cells were washed 3 times with 1 mℓ uptake buffer at 4°C. To the cells, 0.75 mℓ of 1% Triton X-100 was added, and the cells were allowed to stand overnight so that they were lyzed and then the lysate was measured for radioactivity in a liquid scintillation counter.
The Km and Vmax for incorporation of […] were analyzed using a non-linear minimum square program [Yamaoka, K. et al., J. Pharmacobio-Dyn, 4, 879-885 (1981)] using a plot formula (V = Vmax × [S]/(Km + [S]); Vmax is a maximum rate constant, Km is a Michaelis constant, and [S] is a substrate concentration) for the rate of incorporation of L-Glu. […]

Substrate in series [2]: CO[C@@H]([C@H](O)[C@H](O)CO)[C@@H](O)C=O
Briefly: Incorporation of 3-O-methyl-D-glucose (3-OMG) into brain capillary endothelial cell lines TM-BBB (glucose transfer ability). Format: cell-based, mouse. The following applies: other: incorporation of [^3H]3-OMG into TM-BBB cell lines, uptake buffer 37°C, 20 seconds, 0.5-50 mM unlabelled 3-OMG, pH 7.4. Here is the method: as §1

As to `CO[C@@H]([C@H](O)[C@H](O)CO)[C@@H](O)C=O` [3-OMG, 3-O-methyl-D-glucose], the “maximum incorporation rate constant (Vmax)” value on GLUT1 was determined as 44 nmol/min/mg protein.
As to `N[C@H](CC(=O)O)C(=O)O` [D-Asp, D-aspartic acid], in series [1], the “incorporation of [^3H]L-Glu, expressed in % relative to the control” value (shortened to “incorporation … in % relative to the control”) is recorded as 67±6% and the “inhibition of incorporation of [^3H]L-Glu (in words)” value was “significantly inhibited”.
For `N[C@@H](CC(=O)O)C(=O)O` [L-Asp, L-aspartic acid], in series [1], the “incorporation … in % relative to the control” value is reported as 57±2% and the “inhibition of incorporation of [^3H]L-Glu (in words)” value is given as “significantly inhibited”.
As a reminder, the Km is the concentration of substrate that gives half-maximal velocity. Consider `N[C@@H](CCC(=O)O)C(=O)O` [L-Glu, L-glutamic acid], for which the “incorporation … in % relative to the control” value in series [1] is 8.3±1.5%. Besides, the “maximum incorporation rate constant (Vmax)” value in series [1] (incorporation of [^3H]L-Glu into TR-AST cell lines, 37°C) amounted to 1.8 nmol/min/mg protein. Moreover, in series [1] (incorporation of [^3H]L-Glu into TR-AST cell lines, 37°C, read-out: Michaelis constant (Km)), the Km amounted to 96 µM.

B1: GLUT1 (Mus musculus) (protein)
chain: T1 sequence (P17809 1-492)
notes: A band indicating the expression of GLUT-1 was confirmed in any of TM-BBB1, TM-BBB2, TM-BBB3, TM-BBB4 and TM-BBB5; endogenous in cells; host or cells: TM-BBB1 to TM-BBB5, conditionally immortalised mouse brain capillary endothelial cell lines (SV40tsA58 large T transgenic mice)
B1: the Michaelis-Menten constant (Km) in series [2] came out at 6600 µM.
